# Source: patent publication US20220364056A1, “SHORT-CHAIN FATTY ACID PENTANOATE AS ENHANCER FOR CELLULAR THERAPY AND ANTI-TUMOR THERAPY” (PHILIPPS-UNIVERSITÄT MARBURG, priority 2019, published 2022)
# Assays:
# [1] = system: murine ROR1-recognizing CAR T lymphocytes; experiment: murine ROR1-specific CAR T cells stimulated with HDACi, ELISA and flow cytometry; type: cell-based; settings: three days of stimulation
# Protocol: (A) Experimental design for the analysis HDACi-treated ROR1-specific CD8^+ CAR T cells (CARROR1+HDAC). (B and C) The production of TNF-α and IFN-γ from CAR T cells was measured by ELISA and flow cytometry analysis after three days of stimulation with the indicated HDACi. (D) The surface expression of CD25 on CAR T cells was measured by flow cytometry analysis after three days of stimulation with the indicated HDACi (n=3 combined from 3 independent experiments). (E and F) After three days of pre-treatment with pentanoate, CD19t^+ ROR1-specific CAR T cells were transferred intraperitoneally (i.p) into mice bearing 5-days old PancROR1 tumors. In E, Tumor volume and tumor mass were analyzed (n=3 mice/group/experiment combined from 2 independent experiments). (F) The percentage and total cell number of transferred TNF-α and IFN-γ CD19t^+ ROR1-specific CART cells in the tumor tissue at day 14 after tumor inoculation are shown.
# HDAC = experiment: fluorogenic HDAC assay on CTL-derived cell lysates; type: biochemical, murine; settings: unstimulated CTLs set to 1.0
# Protocol: (A) Experimental design for the treatment of CTLs with the water-soluble fraction of intestinal content derived from SPF or GF mice. (B and C) Frequencies of IFN-γ- and TNF-α-producing CTLs treated with the extract from luminal content derived from indicated organs. Representative results of two experiments are shown (n=3). (D) ELISA was performed to measure the secretion of TNF-α by CLTs treated as shown in (A). (E) Quantitative measurement of total SCFA amounts in fecal samples of SPF and GF mice (n=5). (F and G) The percentage of IFN-γ^+ TNF-α^+ CTLs treated with the indicated SCFAs for three days (n=3, one of three independent experiments is shown). (H) The secretion of TNF-α from CTLs treated with SCFAs was determined by ELISA (n=3, one of two independent experiments is shown). (I) The fluorogenic HDAC assay was applied to measure the HDAC inhibitory activity of SCFAs on CTLs. The value for unstimulated CTLs was arbitrarily set to 1.0. Four independent experiments were performed. (J and K) Representative contour plots (J) and bar graphs (K) showing the frequency of IFN-γ+ and TNF-α+ cells after pentanoate (2 mM) or VPA (0.5 mM) administration. Three similar experiments were performed. (L and M) The frequency of Eomes- and T-bet-expressing CTLs treated with pentanoate (2 mM) or VPA (0.5 mM) for three days was analyzed by flow cytometry (n=4). […]
# PancOVA cells = experiment: adoptive transfer of pretreated OT-I CTLs into mice bearing s.c. PancOVA tumors; type: in vivo
# Text: We tested this hypothesis in two different subcutaneous (s.c.) tumor models. We injected s.c. B16OVA melanoma cells into CD45.2^+ mice and transferred either control or pentanoate-treated CD45.1^+ OT-I CTLs into recipient animals on day 5 after tumor injection. […] On day 10 after adoptive transfer of CTLs, we detected a higher number of pentanoate-treated cells expressing more effector cytokines TNF-α and IFN-γ in comparison to control OT-I CTLs in tumors, draining LNs and spleen (FIG. 2, E-G). Furthermore, the anti-tumor effects mediated by treatment of CTLs with pentanoate were tested in aggressive pancreatic tumors expressing OVA protein (OVA-expressing Panc02 cells, PancOVA). To this end, 1.5×10^6 PancOVA cells were injected s.c. into CD45.2^+ mice. […] One area of application is CAR therapy.
# (A) Experimental design for the role of SCFAs in promoting anti-tumor immunity. (B-D) After three days of pre-treatment with pentanoate, CD45.1^+ OVA-specific CTLs were transferred intraperitoneally (i.p.) into CD45.2^+ mice bearing 5-days old B16OVA tumors. Tumor volume and tumor mass were analyzed (n=3 mice per group, one of three independent experiments is shown). […]
# Tumor weight was determined on day 23 post tumor inoculation. […]
compound,measurement,setting,value
CCCCC(=O)O [pentanoate],TNF-α and IFN-γ production of CAR T cells,[1],enhanced
same,expression of CD25 on CAR T cells,[1],enhanced
same,HDAC activity of CTL-derived cell lysates,HDAC,strong reduction of HDAC activity
same,growth of PancOVA cells in recipient animals,PancOVA cells; 7.5×10^5 pentanoate-treated OT-I CD8+ T lymphocytes,completely eliminate the growth
same,persistence of transferred CTLs within draining LNs and spleen,PancOVA cells; day 23 after tumor inoculation,persistence of pentanoate-treated CTLs with high IFN-γ production
